From publication PMC3060409 (Biochemical and biophysical research communications, 2011)
Ends that are not written are not given here.

How the values were obtained:
[1] = system: SOPT2 ([3H]-DADLE uptake in RPE cells); test: Inhibition of [3H]-DADLE uptake in human RPE cells; type: cell-based
hemojuvelin = test: Hemojuvelin expression; type: cell-based; details: mouse RPE; hepcidin treatment; data not shown
transferrin receptor 1 = test: Transferrin receptor 1 expression; type: cell-based; details: mouse RPE; hepcidin treatment; data not shown
ferroportin mRNA [2] = test: Ferroportin mRNA levels, real-time RT-PCR; type: cell-based; details: mouse primary RPE; hepcidin 2 μg/ml, 8 h; P < 0.001 (Fig. 4)
transferrin = test: Transferrin expression; type: cell-based; details: mouse RPE; hepcidin treatment; data not shown
ferroportin = details: target cells; ref [14]; cited from earlier work
HFE mRNA = HFE mRNA levels, RT-PCR; type: cell-based; details: mouse primary RPE; hepcidin 2 μg/ml, 8 h
[3] = system: SOPT2 ([3H]-DADLE uptake in mouse RPE cells); test: Inhibition of [3H]-DADLE uptake in mouse primary RPE cells; type: cell-based, mouse (C57/Bl6); details: hepcidin 25 μM, [3H]-DADLE 10 nM, 30 min
[4] = system: SOPT1 ([3H]-deltorphin II uptake in RPE cells); test: Inhibition of [3H]-deltorphin II uptake in human RPE cells; type: cell-based; details: [3H]-deltorphin II 20 nM, 30 min
[5] = system: SOPT1 ([3H]-deltorphin II uptake in mouse RPE cells); test: Inhibition/stimulation of [3H]-deltorphin II uptake in mouse primary RPE cells; type: cell-based, mouse (C57/Bl6); details: [3H]-deltorphin II 20 nM, 30 min
ferroportin mRNA [6] = test: Ferroportin mRNA levels, semi-quantitative RT-PCR; type: cell-based; details: mouse primary RPE; hepcidin 2 μg/ml, 8 h; HPRT1 internal control
SOPT1 and SOPT2 = details: ref [5]; cited from earlier work
[7] = system: ARPE-19 cells (SOPT1 and SOPT2); type: cell-based, human; details: naloxone 1 mM, 15 min preincubation, FITC-hepcidin 2.5 μM
SOPT1 = details: ref [2]; cited from earlier work

[tyrosyl-3,5–^3H(N)]DADLE [[^3H]-DADLE]
non-mediated diffusional component of uptake ([1]; [3H]-DADLE uptake in presence of 1 mM unlabeled DADLE, pH 7.5): < 5 % of measured total uptake

DTHFPICIFCCGCCHRSKCGYCCKT (cysteine pairing not given here) [hepcidin]
hemojuvelin expression (hemojuvelin): none of these genes was altered | transferrin receptor 1 expression (transferrin receptor 1): none of these genes was altered | ferroportin mRNA levels (real-time RT-PCR) (ferroportin mRNA [2]): decrease in ferroportin mRNA levels was confirmed | transferrin expression (transferrin): none of these genes was altered | binding to ferroportin with internalization and degradation (ferroportin): binds to ferroportin on target cells and that this complex gets internalized with subsequent degradation | HFE mRNA levels (HFE mRNA): no effect on HFE mRNA levels | inhibition of DADLE uptake [3]: almost completely inhibited | dose dependence of deltorphin II uptake inhibition ([4]; RPE cells, Fig. 1B): dose-dependent | IC50 ([4]; read-out: IC50, inhibition of deltorphin II uptake, ARPE-19 cells, 25 mM HEPES/Tris pH 7.5, 140 mM NaCl, means ± S.E., three independent experiments in duplicate): 0.42 ± 0.12 µM | inhibition of deltorphin II uptake ([5]; hepcidin 25 μM, mouse primary RPE): almost completely inhibited | ferroportin mRNA levels (RT-PCR) (ferroportin mRNA [6]): significant reduction in ferroportin mRNA levels | dose dependence of DADLE uptake inhibition ([1]; [3H]-DADLE 10 nM, 30 min, Fig. 1C): dose-dependent

HIV-Tat47–57: exogenous oligopeptide recognized by SOPT1 and SOPT2 (YGRKKRRQRRR; Tat; UniProt P04608 47-57, looked up, fragment)
recognition by SOPT1 and SOPT2 (SOPT1 and SOPT2): recognize

C=CCN1CC[C@]23c4c5ccc(O)c4O[C@H]2C(=O)CC[C@@]3(O)[C@H]1C5 [naloxone]
effect on FITC-hepcidin uptake (flow cytometry) [7]: did not alter the uptake

Gly-Gly-Ile
stimulation of SOPT1 (SOPT1): potent stimulator of SOPT1 | effect on deltorphin II uptake (stimulation) ([5]; mouse RPE cells, Gly-Gly-Ile 1 mM): stimulated deltorphin II uptake
